The values that follow come from publication PMC8005090, “Bioanalytical Method Development and Validation Study of Neuroprotective Extract of Kashmiri Saffron Using Ultra-Fast Liquid Chromatography-Tandem Mass Spectrometry (UFLC-MS/MS): In Vivo Pharmacokinetics of Apocarotenoids and Carotenoids” (Molecules, 2021).

A short description of series [1]: Oral pharmacokinetics of CSE constituents in rat plasma (UFLC-MS/MS). Format: in vivo, Sprague–Dawley rats. The following applies: single oral CSE 40 mg/kg, n = 6, mean ± SEM. As to the method: The PK parameters were calculated by non-compartmental analysis. The PK parameters, such as maximum plasma concentration (Cmax) and the time to reach the maximum plasma concentration (Tmax), were derived directly from the experimental data. The trapezoidal equation calculated the areas under the plasma concentration-time curves from 0 to the time of the last quantifiable concentration (AUC0−t). The AUC was extrapolated to infinity AUC0-∞ using Ct/Kel, where Ct is the last measured MET concentration. Kel is the elimination rate constant determined from the terminal slope of the log concentration-time plot. The Kel was obtained from the linear regression curve slope by fitting the terminal concentrations’ natural logarithms versus time. The terminal elimination half-life (t1/2) was calculated by 0.693/Kel. The clearance (CL) was calculated as the quotient of the dose (D) and AUC0−∞. All values were expressed as mean ± SEM.
Male Sprague–Dawley rats (250–300 g) were purchased from Crystal Biological Solution, Pune, Maharashtra, India. The animal studies were sanctioned by the Animal Ethics Committee of Crystal Biological Solution, Pune. It was carried out following the Animal Ethics Procedures and Guidelines of Control and Supervision of Experiments on Animals (CPCSEA) committee requirements. Animals were housed 3–4 per cage in rooms with constant temperature (25 ± 2 °C), humidity (50 ± 20%), and 12 h dark-light cycle. All animals in the oral group fasted overnight before the dosing, and food was provided 8 h post-dose, and water was ad libitum. The investigational CSE was fed orally to an individual rat as per its body weight.
The UFLC-MS/MS analysis was performed on a Shimadzu UFLC system (Kyoto, Japan) consisting of a DGU-20A5R degasser, LC-30AD pump, SIL-30AC autosampler, CTO-20AC column oven. The chromatographic separation was carried out in a single analytical run divided into loading and eluting phases by alternating the electronic valve. At the loading phase (−1–0 min), the auto-sampler was responsible for injecting 50 µL of the sample. The LC-30AD pump was responsible for delivering water containing 0.1% formic acid to the pre-column (Phenomenex Security Guard ULTRA with C8 Cartridge) at 0.8 mL/min to remove protein and retain analytes. At the eluting phase (0–12 min), the retained components were flushed from the pre-column into the analytical column (Dr. Maisch GmbH Reprosil Gold XBD C8, 50 mm × 4.6 mm, i.d., 1.8 µm) eluting as per time programmed gradient. The flow rate of the mobile phase was 0.8 mL/min. The mobile phase consists of a mixture of water containing 0.1% formic acid (%v/v) (A) and 100% acetonitrile (B). The gradient elution program was carried out for chromatographic separation: 0.01–1.91 min, 20% B; 1.91–5.91 min, 2090% B; 5.91–6.91 min, 90–80% B; 6.91–8.24 min, 80–20% B; and 8.24–12 min, 20% B. The column oven temperature was set at 30 °C. The MS/MS analysis was carried out on an LCMS-8045 triple-quadrupole mass spectrometer (Shimadzu, Kyoto, Japan) equipped with positive and negative electrospray ionization (ESI) interfaces using the MRM mode. The compound and source dependent parameters were defined as follows: nitrogen was used as nebulizing and drying gas; argon was used as the collision gas. Quadruple voltage was set at Q1 RF gain: 4998 Q1 RF offset 4990 and Q1 post-rod bias: −5.0 V CID CELL exit lens: −4.0 V, interface: ESI, interface temperature: 350 °C, desolvation line (DL) temperature: 250 °C, nebulizing gas flow: 2.50 L/min, heating gas flow: 10.00 L/min heat block: 300 °C; drying gas flow: 10.00 L/min.
An aliquot of 45 µL of rat plasma was spiked with each 5 µL of IS1 and IS2, and 200 µL of methanol was added, vortexed for 1–2 min, then centrifuged for 10 min at 2000 RPM. Collect the supernatant into HPLC vials and injected it into the UFLC-MS/MS system for analysis. […]

Series [2] is described as follows: Stability of analytes in rat plasma (autosampler, room temperature, freeze-thaw). It is filed as in vitro ADME. The following applies: for analyte stability in plasma: LQC and HQC, processed plasma samples, stable under restricted storage conditions; for Room Temperature Stability (%, mean ± SD) / Autosampler Stability (%, mean ± SD) / Freeze-Thaw Stability (%, mean ± SD): rat plasma, n = 6; for Room Temperature Stability (%, mean ± SD): ambient temperature 4 h; for Autosampler Stability (%, mean ± SD): autosampler 8 °C for 24 h; for Freeze-Thaw Stability (%, mean ± SD): three freeze-thaw cycles at −20 ± 4 °C. As to the method: The stability was performed at different sets of working and storage conditions. […] The stability conditions of the method studied were at ambient temperature for 4 h (room-temperature stability), in the autosampler at 8 °C conditions for 24 h (autosampler stability), and with three freeze-thaw cycles at −20 ± 4 °C condition (freeze-thaw stability). The samples were prudent to be stable if the measured concentration was within ±15% of the nominal concentration.

The next series concerns mice. More on the design: method as in PMID 28471166, PMID 31459089, PMID 33404280. The following applies: by inducing autophagy mediated by AMPK pathway activation; cited from earlier work.
The mark [3] stands for this setting: male, Sprague-Dawley, rat, plasma, po, 40 mg/kg.
The mark [4] stands for this setting: male, Sprague-Dawley, rat, plasma, po, 40 mg/kg, read-out: Tmax.

Like-named read-outs stand apart in the source and are kept apart here.

Take `CC(=C/C=C/C=C(C)/C=C/C=C(\C)C(=O)OC1OC(COC2OC(CO)C(O)C(O)C2O)C(O)C(O)C1O)/C=C/C=C(\C)C(=O)OC1OC(COC2OC(CO)C(O)C(O)C2O)C(O)C(O)C1O` (stereo not drawn) [C4C, cis-4-GG-crocin]: in series [1] (setting [3]), the half-life (as a rule, how long it takes for the measured level to halve) is 1.57 ± 1.57 h. Besides, the Tmax (in general, the time from dosing to the highest level) in series [1] (setting [4]) stood at 3.25 ± 1.05 h. In series [1] (male, Sprague-Dawley), the area under the curve AUC(0-inf) (in general, total exposure, with the tail of the curve extrapolated) was found to be 407 ± 187 ng·h/mL; the exposure AUC(0-t) (in general, the area under the concentration-time curve up to a stated or last time point) was 396 ± 113 ng·h/mL; the highest concentration (Cmax) (commonly the maximum level reached in the sampled fluid or tissue) turned out to be 86.1 ± 15.7 ng/mL. Besides, in series [1], the CL worked out at 326.37 ± 445.89 mL/h/kg and the Vd is listed as 4.29 ± 1.94 L/kg.

Molecule `CC1=C(C=O)C(C)(C)C[C@H](O[C@@H]2O[C@H](CO)[C@@H](O)[C@H](O)[C@H]2O)C1` [PIC, picrocrocin] gave a half-life in series [1] (setting [3]) of 0.793 ± 0.078 h. In addition, the time of peak concentration (Tmax) in series [1] (setting [4]) worked out at 0.67 h. Besides, in series [1] (male, Sprague-Dawley), the AUC(0-inf) was found to be 3820 ± 257 ng·h/mL, the AUC(0-t) came to 3690 ± 274 ng·h/mL and the Cmax was found to be 2720 ± 231 ng/mL. For the same molecule, in series [1], the CL was 1935.88 ± 123.45 mL/h/kg, the time of peak concentration (Tmax) was 0.792 ± 0.10 h and the Vd is given as 2.258 ± 0.3168 L/kg. Further, the “analyte stability in plasma” value in series [2] is “stable”. Also, in series [2] (nominal 30.00 ng/mL (LQC)), the “Room Temperature Stability (%, mean ± SD)” value was found to be 30.40 ± 0.92 ng/mL; the “Autosampler Stability (%, mean ± SD)” value turned out to be 29.52 ± 1.26 ng/mL; the “Freeze-Thaw Stability (%, mean ± SD)” value is on record as 29.98 ± 1.66 ng/mL. For the same molecule, in series [2] (nominal 2400.00 ng/mL (HQC)), the “Room Temperature Stability (%, mean ± SD)” value is recorded as 2406.19 ± 94.01 ng/mL; the “Autosampler Stability (%, mean ± SD)” value is recorded as 2463.69 ± 113.42 ng/mL; the “Freeze-Thaw Stability (%, mean ± SD)” value stood at 2498.53 ± 111.53 ng/mL.

Take `CC1=C(C=O)C(C)(C)CC=C1` [SAF, safranal]: the “analyte stability in plasma” value in series [2] was “stable”.

Take `CC(/C=C/C=C(\C)C(=O)OC1OC(CO)C(O)C(O)C1O)=C\C=C\C=C(C)\C=C\C=C(/C)C(=O)OC1OC(CO)C(O)C(O)C1O` (stereo not drawn) [T2C, trans-2-gg-crocin]: the half-life in series [1] (setting [3]) is 5.75 ± 0.73 h. In addition, the Tmax in series [1] (setting [4]) worked out at 4.34 ± 0.51 h. Besides, in series [1] (male, Sprague-Dawley), the AUC(0-inf) was found to be 1680 ± 238 ng·h/mL, the AUC(0-t) was 1530 ± 197 ng·h/mL and the concentration peaked (Cmax) at 160 ± 15.2 ng/mL. Besides, in series [1], the CL was 234.77 ± 31.12 mL/h/kg and the Vd was 2.006 ± 0.457 L/kg.

In series [1] (setting [3]), `CC(/C=C/C=C(\C)C(=O)OC1OC(CO)C(O)C(O)C1O)=C\C=C\C=C(C)\C=C\C=C(/C)C(=O)OC1OC(COC2OC(CO)C(O)C(O)C2O)C(O)C(O)C1O` (stereo not drawn) [T3C, trans-3-Gg-crocin] showed a half-life of 4.6 ± 2.74 h. Besides, in series [1] (setting [4]), the time to peak (Tmax) was found to be 3.5 ± 1.09 h. Moreover, in series [1] (male, Sprague-Dawley), the total exposure AUC(0-inf) was 55.5 ± 31.2 ng·h/mL, the AUC(0-t) came to 20.4 ± 9.64 ng·h/mL and the highest level (Cmax) was 7.59 ± 4.71 ng/mL. Further, in series [1], the CL was 114,958.33 ± 71,000.46 mL/h/kg and the Vd turned out to be 325.573 ± 13.099 L/kg.

With `CC(/C=C/C=C(\C)C(=O)OC1OC(COC2OC(CO)C(O)C(O)C2O)C(O)C(O)C1O)=C\C=C\C=C(C)\C=C\C=C(/C)C(=O)OC1OC(COC2OC(CO)C(O)C(O)C2O)C(O)C(O)C1O` (stereo not drawn) [T4C, trans-4-GG-crocin], the half-life in series [1] (setting [3]) was 3.36 ± 1 h. In addition, in series [1] (setting [4]), the Tmax amounted to 3.5 ± 0.57 h. Moreover, in series [1] (male, Sprague-Dawley), the total exposure AUC(0-inf) was found to be 370 ± 75.6 ng·h/mL, the AUC(0-t) is 277 ± 67.7 ng·h/mL and the peak level (Cmax) was 49.3 ± 11.2 ng/mL. For the same molecule, in series [1], the CL is 19,568.35 ± 4835.41 mL/h/kg and the Vd is listed as 69.250 ± 16.150 L/kg.

Molecule `CC(/C=C/C=C(\C)C(=O)O)=C\C=C\C=C(C)\C=C\C=C(/C)C(=O)O` [TCT, trans crocetin] yielded a half-life in series [1] (setting [3]) greater than 11 h. Besides, the Tmax in series [1] (setting [4]) was 6.83 ± 1.68 h. In series [1] (male, Sprague-Dawley), this molecule showed an AUC(0-inf) of 30700 ng·h/mL, an exposure AUC(0-t) of 23600 ng·h/mL and a Cmax of 2080 ± 374 ng/mL. Moreover, in series [1], the time of peak concentration (Tmax) was determined as 6.84 ± 1.69 h. In addition, the “analyte stability in plasma” value in series [2] was “stable”. The memory function entry with mice is reported as “improved memory function”.
